Assay results reported in paper PMC4947994 (Acta Naturae, 2016).
Each block holds one compound with its values, some of them ahead of it.

What was measured:
human PARP-1 = target: T1, human PARP-1 (Homo sapiens, UniProt P09874); assay: biochemical; type: biochemical; conditions: for IC50: auto-poly(ADP-ribosyl)ation, NAD+ 0.3 mM, 37°C
T1 construct: made in house
Protocol: (§1) Recombinant human PARP-1 and murine PARP- 2 proteins were purified as described previously. Reaction of poly(ADP-ribosyl)ation catalyzed by PARP-1 and PARP-2 was performed at optimal conditions for each enzyme. Briefly, for PARP-1: 50 mM Tris-HCl pH 8.0, 20 mM MgCl2, 150 mM NaCl, 7 mM β-mercaptoethanol, activated DNA (2 o.u.280/ml, degree of activation 25%), 300 •µM NAD^+ (0.18 •µCi [^3H]NAD^+), 37°C. The reaction was started by adding PARP-1 up to a final concentration of 0.2 μM and was stopped after 1 min, placing the reaction mixture on paper filters (Whatman-1) soaked with a 5% solution of trichloroacetic acid. For PARP-2: 50 mM Tris-HCl pH 8.0, 40 mM NaCl, 0.1 mg/ml BSA, 8 mM MgCl2, 1 mM DTT, activated DNA (2 o.u.280/ml, degree of activation 25%), 400 •µM NAD^+ (0.4 •µCi [^3H]NAD^+), 37°C. The reaction was started by adding PARP-2 up to a final concentration of 0.2 μM and was stopped after 5 min, placing the reaction mixture on the paper filters. The filters were washed four times by the 5% trichloroacetic acid, then by 90% ethanol (to remove acid), and air-dried. The quantity of radiolabel included into the acid insoluble product was registered on a scintillation counter Tri-Carb 2800 (Perkin Elmer) in a toluene scintillator. The quantity of the radiolabeled product was determined at the initial rate period.
(§2) The PARP-inhibiting activity of the synthesized compounds was evaluated in a reaction of auto- poly(ADP-ribosyl)ation at a NAD^+ concentration of 0.3 mM for PARP-1 and 0.4 mM for PARP-2. Different concentrations of the tested compounds were added to the reaction mixture before adding the enzyme. Reaction and detection of the products were performed as described above. To determine the IC50 value (concentration of the compound required to reduce the enzyme activity by 50%), the effect of different concentrations of the inhibitor on the enzyme activity was examined. Measurements were done in at least two independent experiments. IC50 values were calculated using the Origin Pro 8.0 software by nonlinear regression analysis.

murine PARP-2 = target: T2, murine PARP-2 (Mus musculus, UniProt O88554); assay: PARP-2 auto-poly(ADP-ribosyl)ation enzyme assay ([3H]NAD+ incorporation); type: biochemical; conditions: for IC50: auto-poly(ADP-ribosyl)ation, NAD+ 0.4 mM, 37°C
T2 construct: made in house
Protocol: as §1, §2

HCC1937 cells [1] = assay: Cytotoxicity: Sub-G1 population by flow cytometry; type: cell-based, human; conditions: for Sub-G1 population: 72 h
Protocol: (§3) A BRCA1-deficient human breast cancer line HCC1937 (ATCC CRL-2336) was cultured in DMEM supplemented with 10% heat-inactivated fetal bovine serum, penicillin/streptomycin (100 U/ml), and pyruvate (0,11 mg/ml) at 37°C in 20% O2 humidified atmosphere. The cells were maintained in a logarithmic growth phase for all experiments.
(§4) To perform cell cycle analysis, the cells were then harvested after 72 hours, fixed with 70% EtOH (final concentration) for 60 min on ice, rinsed in PBS, and stained in a 500 •µl solution containing 50 •µg/ml propidium iodide and 25 •µg/ml RNase A for 15 min. Data were acquired by a BD FACS CantoII flow cytometer (BD Biosciences) and analyzed using the FACSDiva software. The cleavage of the fluorogenic peptide substrate […] was measured using a fluorometric assay. Upon treatment with cytotoxic agents, the cells were incubated for 48 hours, then harvested and washed with PBS. After centrifugation, they were re-suspended in PBS at a concentration of 2 × 10^6 cells/100 μl. Then, 25 μl of the suspension was added to a 96-well plate and mixed with a DEVD peptide substrate dissolved in a standard reaction buffer (100 mM HEPES, 10% sucrose, 5 mM DTT, 0.001% NP- 40, and 0.1% CHAPS, pH 7.2). Cleavage of the fluorogenic peptide substrate was monitored by AMC liberation in a VarioScan Flash multimode detector (Thermo Scientific) using 380 nm excitation and 460 nm emission wavelengths. Measurements were done in at least two independent experiments.

HCC1937 cells [2] = assay: Caspase-3-like activity (fluorogenic peptide substrate cleavage); type: cell-based, human; conditions: 7-methylguanine alone, 48 h
Protocol: as §3
as §4, with “Then, 25 μl of the suspension was added to a 96-well plate and mixed with a DEVD peptide substrate dissolved in a standard reaction buffer (100 mM HEPES, 10% sucrose, 5 mM DTT, 0.001% NP- 40, and 0.1% CHAPS, pH 7.2).” left out, “Measurements were done in at least two independent experiments.” left out

PARP-1 = conditions: cited from earlier work
PARP = test system: PARP; set-up: method as in PMID 11149897, PMID 16870158; conditions: cited from earlier work
[3] = replacement of 2-oxo group by amino group

T2 sequence (O88554 whole entry): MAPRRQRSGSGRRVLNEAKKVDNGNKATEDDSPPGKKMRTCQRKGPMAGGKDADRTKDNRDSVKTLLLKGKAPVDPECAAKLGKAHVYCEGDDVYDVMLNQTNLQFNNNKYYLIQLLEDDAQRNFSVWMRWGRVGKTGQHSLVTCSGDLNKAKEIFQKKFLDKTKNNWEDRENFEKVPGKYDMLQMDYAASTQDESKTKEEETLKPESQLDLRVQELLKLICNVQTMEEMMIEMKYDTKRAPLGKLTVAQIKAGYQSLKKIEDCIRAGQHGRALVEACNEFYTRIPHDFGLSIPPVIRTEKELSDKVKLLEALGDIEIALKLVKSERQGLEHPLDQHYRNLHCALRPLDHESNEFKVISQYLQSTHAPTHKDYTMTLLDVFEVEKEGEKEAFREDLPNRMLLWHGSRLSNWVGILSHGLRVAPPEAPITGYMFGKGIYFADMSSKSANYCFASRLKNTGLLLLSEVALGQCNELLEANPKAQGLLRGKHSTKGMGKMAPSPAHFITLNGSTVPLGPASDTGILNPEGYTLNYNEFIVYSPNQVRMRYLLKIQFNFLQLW
T1 sequence (P09874 whole entry): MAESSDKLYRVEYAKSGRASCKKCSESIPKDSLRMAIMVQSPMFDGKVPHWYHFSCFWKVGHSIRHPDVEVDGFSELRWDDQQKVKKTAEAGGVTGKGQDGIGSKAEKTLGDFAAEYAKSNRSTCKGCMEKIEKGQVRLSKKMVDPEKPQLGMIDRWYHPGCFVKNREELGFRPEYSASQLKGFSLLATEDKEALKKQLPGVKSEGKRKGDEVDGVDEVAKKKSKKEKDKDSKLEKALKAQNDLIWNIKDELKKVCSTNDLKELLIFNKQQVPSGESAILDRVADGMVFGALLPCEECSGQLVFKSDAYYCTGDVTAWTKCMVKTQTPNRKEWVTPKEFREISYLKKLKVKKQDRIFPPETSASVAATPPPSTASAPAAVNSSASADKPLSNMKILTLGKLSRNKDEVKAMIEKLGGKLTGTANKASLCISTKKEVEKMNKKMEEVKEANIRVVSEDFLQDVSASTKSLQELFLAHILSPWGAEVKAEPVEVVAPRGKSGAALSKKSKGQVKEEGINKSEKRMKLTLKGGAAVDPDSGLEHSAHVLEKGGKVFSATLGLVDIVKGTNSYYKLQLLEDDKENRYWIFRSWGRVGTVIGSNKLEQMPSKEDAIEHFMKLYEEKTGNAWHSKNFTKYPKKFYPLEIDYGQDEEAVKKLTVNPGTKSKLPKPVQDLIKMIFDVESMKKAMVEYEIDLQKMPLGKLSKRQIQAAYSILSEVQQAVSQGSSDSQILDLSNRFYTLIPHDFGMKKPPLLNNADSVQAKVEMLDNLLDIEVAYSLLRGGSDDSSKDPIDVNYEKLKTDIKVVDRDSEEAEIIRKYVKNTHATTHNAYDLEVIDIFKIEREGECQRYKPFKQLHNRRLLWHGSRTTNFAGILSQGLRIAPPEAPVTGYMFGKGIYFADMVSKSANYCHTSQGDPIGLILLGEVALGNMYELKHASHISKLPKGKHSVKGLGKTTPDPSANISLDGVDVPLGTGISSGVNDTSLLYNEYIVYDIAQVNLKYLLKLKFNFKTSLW

IC50 (human PARP-1): 230 µM
IC50 (murine PARP-2): 90 µM
Compound: CCn1cnc2[nH]c(N)nc(=O)c21 [7-ethylguanine, 7-Ethylguanine]

IC50 (human PARP-1): 150 µM
increase in the ability to inhibit PARP-1 compared with 7-methylxanthine (human PARP-1; [3]): 5 fold
IC50 (murine PARP-2): 50 µM
increase in the ability to inhibit PARP-2 compared with 7-methylxanthine (murine PARP-2; [3]): 3 fold
Compound: Cn1cnc2nc(N)[nH]c(=O)c21 [7-methylguanine, 7-Methylguanine]
Sub-G1 population (HCC1937 cells [1]; 7-methylguanine 150 μM alone): around 2%
cytotoxicity (HCC1937 cells [1]; at the PARP inhibitory concentration, 7-methylguanine alone): not cytotoxic
caspase-3 activation (HCC1937 cells [2]): no caspase-3 activation

IC50 (human PARP-1): 780 µM
IC50 (murine PARP-2): 620 µM
Compound: Cn1cnc2nc[nH]c(=O)c21 [7-methylhypoxanthine, 7-Methylhypoxanthine]

IC50 (human PARP-1): 800 µM
IC50 (murine PARP-2): 160 µM
Compound: Cn1cnc2[nH]c(=O)[nH]c(=O)c21 [7-methylxanthine, 7-Methylxanthine]
PARP-1 inhibition (PARP-1): moderate inhibitor

Compound: N.N.[Cl][Pt][Cl] [cisplatin, reference compound]
Sub-G1 population (HCC1937 cells [1]; cisplatin 70 μM alone): 34%

Compound: COc1cccc2c1C(=O)c1c(O)c3c(c(O)c1C2=O)C[C@@](O)(C(=O)CO)C[C@@H]3O[C@H]1C[C@H](N)[C@H](O)[C@H](C)O1 [doxorubicin, reference compound]
Sub-G1 population (HCC1937 cells [1]; doxorubicin 1 μM alone): 32%

Compound: O=c1[nH]cnc2nc[nH]c12 [hypoxanthine]
PARP inhibitory effect (PARP): relatively weak inhibitory effect

Compound: Cc1c[nH]c(=O)[nH]c1=O [thymine]
PARP inhibitory effect (PARP): relatively weak inhibitory effect

Compound: O=c1[nH]c(=O)c2nc[nH]c2[nH]1 [xanthine, reference compound]
PARP-1 inhibition (PARP-1): does not show inhibition
